{"source": "patent US8324280B2", "about": "“Treatment of prostate cancer with DDC inhibitor” (The University of British Columbia, priority 2008, dated 2012)", "key": {"[1]": {"system": "parental LNCaP xenografts", "assay": "Parental LNCaP tumour xenografts in castrated mice, progression to androgen-independence", "type": "in vivo", "experimental": "Parental LNCaP cells were inoculated subcutaneously (s.c.), after resuspension in 0.1 mL of Matrigel (Becton Dickinson Labware), into two flank regions (2.5×10^6 cells/site) of 6 to 8 week old male athymic nude mice (Harlan Sprague Dawley, Inc.) via a 27-gauge needle under halothane anesthesia. Tumour volume and serum PSA measurements (blood collected from the tail vein) were performed once per week after tumours became palpable. PSA levels were measured by ELISA (ClinPro International) and tumour size was calculated by the formula; length×width×depth×0.5236. Once serum PSA values reached 75-100 ng/mL, mice were castrated and treated with or without carbidopa. Carbidopa was purchased from Sigma and dissolved in DMSO. The solution was diluted in PBS to a final concentration of 10% DMSO and sterilized through a 0.2 μm filter. Carbidopa solution was injected intraperitoneally into half of the mice (25 mg per kg of body weight) for the +carbidopa group, while the remaining mice received vehicle injections consisting of 10% DMSO in PBS (−carbidopa group). Injections were carried out daily for the duration of the experiment. Each animal group contained 5-6 mice. Serum PSA and tumour volume values were measured with progression to androgen-independence and normalized to pretreatment values (set at 100%) to obtain the mean percentage PSA and mean tumour volume of pre-treatment (±SEM). All animal procedures were performed according to the guidelines of the Canadian Council of Animal Care and with appropriate institutional certification. Statistical analysis was performed using the Student's t-test (two-sample equal variance) with JMPIN statistical software (Version 4.0.2, SAS Institute Inc.)."}, "[2]": {"system": "LNCaP-Vector control xenografts", "assay": "LNCaP-Vector control tumour xenografts with carbidopa treatment", "type": "in vivo, mice", "settings": "25 mg/kg intraperitoneally daily, Dox, endogenous DDC only", "experimental": "LNCaP-DDC and LNCaP-Vector control cells were inoculated subcutaneously (s.c.), after resuspension in 0.1 mL of Matrigel (Becton Dickinson Labware), into two flank regions (2.5×10^6 cells/site) of 6 to 8 week old male athymic nude mice (Harlan Sprague Dawley, Inc.) via a 27-gauge needle under halothane anesthesia. Tumour volume and serum PSA measurements (blood collected from the tail vein) were performed once per week after tumours became palpable. PSA levels were measured by ELISA (ClinPro International) and tumour size was calculated by the formula; length×width×depth×0.5236. Once serum PSA values reached 75-100 ng/mL, mice in both the LNCaP-DDC and LNCaP-Vector control groups were given Dox-treated water (200 μg/mL) and treated with or without carbidopa. Carbidopa was purchased from Sigma and dissolved in DMSO. The solution was diluted in PBS to a final concentration of 10% DMSO and sterilized through a 0.2 μm filter. Carbidopa solution was injected intraperitoneally into half of the mice (25 mg per kg of body weight) for the +carbidopa groups, while the remaining mice received vehicle injections consisting of 10% DMSO in PBS (−carbidopa groups). Injections were carried out daily for the duration of the experiment. […] PSA velocity and tumour growth rate differences were determined by one-way ANOVA and Tukey's multiple comparison test. […]"}}}
{"smiles": "C[C@@](Cc1ccc(O)c(O)c1)(NN)C(=O)O", "note": "[carbidopa, α-Methyl-dopahydrazine]", "values": [{"measurement": "decrease in PSA level with treatment versus control group", "setting": "[1]; 11 weeks", "result": 4.3, "unit": "fold"}, {"measurement": "decrease in tumour growth versus control group", "setting": "[1]; 11 weeks", "result": 5.4, "unit": "fold"}, {"measurement": "tumour volume, of pre-treatment", "setting": "[1]; castrated mice, 25 mg/kg i.p. daily, 11 weeks", "result": "478±97", "unit": "%"}, {"measurement": "serum PSA level, of pre-treatment", "setting": "[1]; castrated mice, 25 mg/kg i.p. daily, 11 weeks (termination)", "result": "167±36", "unit": "%"}, {"measurement": "serum PSA level, of pre-treatment", "setting": "[1]; castrated mice, 25 mg/kg i.p. daily, week 1", "result": "38±5", "unit": "%"}, {"measurement": "serum PSA level, of pre-treatment", "setting": "[1]; castrated mice, 25 mg/kg i.p. daily, week 10", "result": "148±34", "unit": "%"}, {"measurement": "increase of tumour volume from pre-treatment volume", "setting": "[1]; over 11 weeks", "result": "about 5 fold"}, {"measurement": "PSA velocity (rate of PSA production)", "setting": "[2]; over 35 days", "result": "7.2±1"}, {"measurement": "tumour growth rate", "setting": "[2]; over 49 days", "result": "9.8±2"}]}
